Laboratory results as given in US20240398737A1, “FUNCTIONALIZED LONG-CHAIN HYDROCARBON MONO- AND DI-CARBOXYLIC ACIDS AND DERIVATIVES THEREOF, AND THEIR USE FOR THE PREVENTION OR TREATMENT OF DISEASE” (Espervita Therapeutics, Inc., priority 2021, published 2024).

Experiments:
[1] = tested on: Mouse primary hepatocytes; experiment: 14C-acetate incorporation into total lipids in mouse primary hepatocytes; type: cell-based; details: incorporation of 14C-acetate in primary mouse hepatocyte total lipids, 4 hours; for inhibition at 100 µM: read-out: % change from control at 100 μM ± SEM(n)
Method: After perfusion, collagen digested liver cells were re-suspended in William's E media (11 mM glucose) (Gibco) supplemented with 10% fetal bovine serum (FBS) (Gibco), 2 mM L-glutamine (Gibco) and 1% Antibiotic-Antimycotic (Gibco) mixture and seeded in white opaque 96-well plates. On the following day, the cells were serum-starved for 2 hours, then treated with 0 μM, 0.1 μM, 0.3 μM, 0.5 μM, 1 μM, 3 μM, 10 μM, and 100 μM of Compound I-32, Compound I-1, Compound III-1 or Reference Compound (e.g., any of Compounds A-E or bempedoic acid) in the presence of ^14C-Acetate (1 μCi/ml, PerkinElmer). Each of Compound I-32, Compound I-1, Compound III-1, and Reference Compound was solubilized in 100% DMSO to a final concentration of 100 mM stock solution. In the experimental condition, the stock solution was diluted in serum free media (William's E media (11 mM glucose) (Gibco), 2 mM L-glutamine (Gibco) and 1% Antibiotic-Antimycotic) to yield the desired concentration of each compound. […] After 4 hours of treatment, the plates were washed two times with PBS (×1) and 100 μL microscint fluid (Microscint 0, part #601361) was added in each well. Plates were wrapped with aluminum foil and were shaken at 250 rpm for 2 h. After 2 h of shaking, ^14C incorporation into lipid was determined by liquid scintillation counting using a TopCount NXT Microplate Scintillation and Luminescence Counter (Perkin Elmer).
The effects of Compound I-32, Compound I-1, and Compound III-1 on mouse primary hepatocyte lipogenesis are represented in Table 13. Each Compound was assayed at a concentration of 0 μM (vehicle control), 0.1 μM, 0.3 μM, 0.5 μM, 1 μM, 3 μM, 10 μM, and 100 μM, unless otherwise noted. Statistically significant inhibition was determined by one-way ANOVA and Dennett's post hoc test where appropriate. […] IC50 values were determined by nonlinear regression. All statistical analyses were carried out using GraphPad Prism 8 software. A p-value of less than or equal 0.05 was considered significant.

[2] = tested on: human hematopoietic stem and progenitor cells; experiment: Megakaryopoiesis and platelet production in cultured human hematopoietic stem and progenitor cells; type: cell-based; details: added day 0, 8 days culture, I-32 and I-1 30 μM, ABT-737 6 μmol
Method: Materials and Methods. Hematopoietic stem and progenitor cells, identified as viable CD45+ CD34+ cells, were isolated from peripheral blood of healthy donors by a method known in the art (see Ivetic N, Nazi I, Karim N et al. Producing megakaryocytes from a human peripheral blood source. Transfusion 2016; 56:1066-74). These isolated cells were then analyzed for purity before being expanded for four days using a commercial supplement to increase their cell population. After expansion, the cells were analyzed for purity, washed, and stimulated with a saturating concentration of thrombopoietin (20 ng/mL) and stem cell factor (50 ng/mL) to begin megakaryopoiesis. Compound I-32 and Compound I-1 were added at this timepoint at a concentration of 30 μM. The cells were then cultured for 8 days to develop into megakaryocytes and analyzed via flow cytometry to assess their number, maturity, and platelet count as defined by CD41a, CD42b and Calcein-AM expression. In addition, Compound I-32 and Compound I-1 were added to cells during the later stages of development (day 6) to assess their impact on maturation. ABT-737 (6 μmol) was used as a positive control and a DMSO vehicle control (<0.15% v/v) was the negative control. All counts are normalized to a media control (PBS) as a reference for basic cell growth.
Statistical analysis. Statistical analyses were carried out by comparing effects on measured parameters in comparison to vehicle control. A value of […] (One-way ANOVA multiple comparisons) was considered as significant.
Two isolations were performed from two healthy donors (2 males) and used to assess the impacts of Compound I-32 and Compound I-1. For one of the isolations, enough expanded hematopoietic stem and progenitor cells (HSPC) (Experiment 1) were obtained so that the addition of the compounds on day 6 was also performed along with the initial experiment. For the other experiment (Experiment 2) only an 8-day incubation was performed.
All results were normalized to a reference media (PBS) and Compound I-32 and Compound I-1 were compared to a vehicle control. Reference compound ABT-737 is a known BCL-2 inhibitor and was used a positive control. Results in FIGS. 25A-25J are the summary of a single experiments conducted in triplicates. No statistical inhibition was detected for Compound I-32 or Compound I-1 (p>0.05 one-way ANOVA).

human ACLY = human ACLY (Homo sapiens (Human), UniProt P53396); experiment: ATP-citrate lyase (ACLY) enzymatic assay (ADP-Glo); type: biochemical; details: recombinant human ACLY; 10 concentrations from 300 μM; Runs 1-3; read-out: Compound IC50 (M) ACLY
Method: ATP citrate lyase was obtained from Sino Biological Inc. Cat #11769-H07B, Lot #LC08DE1701. It was prepared from a DNA sequence encoding the human ACLY (P53396) (Met 1-Met 1101) expressed in Baculovirus-Insect Cells, with a polyhistidine tag at the N-terminus. The recombinant human ACLY consists of 1120 amino acids and has a calculated molecular mass of 123 kDa. It migrates as an approximately 110 kDa band in SDS-PAGE under reducing conditions. The enzyme came as a lyophilized powder in sterile 20 mM Tris, 500 mM NaCl, pH 8.0, 10% glycine. Normally 5%-8% trehalose and mannitol are added as protectants before lyophilization. The recombinant human ACLY from Sino Biological was formulated in 45 mM Tris-HCl, pH 8.0, 124 mM NaCl, 2.4 mM KCl, 18 mM glutathione, 10% glycerol, and 3 mM DTT.
To detect ADP produced from ACL assay, the ADP-Glo™ assay format from Promega, Madison, WI, was used, to detect the conversion of ATP to ADP. […] This assay is performed in two steps: i) after the ACL-mediated enzymatic reaction that utilizes ATP and produces ADP, ADP-Glo™ Reagent is added to terminate the kinase reaction and deplete the remaining ATP, and ii) the Kinase Detection Reagent is added to convert ADP to ATP and allow the newly synthesized ATP to be measured using a luciferase/luciferin reaction. The light generated, measured in a luminometer, correlates to the amount of ADP generated in the ACL assay, which is indicative of ACL activity.
Data represent nM or μM ADP produced, % Activity (relative to no inhibitor controls), and curve fits were performed by GraphPad Prism software. The IC50 concentration-response curves were generated for ADPGlo™ using recombinant human ACL from Sino Biologicals Inc.

[3] = Synthesis of CoA derivatives in rat liver microsomes (LCMS detection); type: in vitro ADME; details: 1 mM substrate, 30 min sample
Method: Reaction products were eluted using the gradient shown below: […]
Formation and detection of the Co-A derivatives of Compounds 1-32, 1-61, I-1 or III-1 in rat liver microsomes: 1 mM of each compound (Compounds I-32, I-61, I-1 or III-1) or palmitic acid (control) were used as substrate in the rat microsomal preparation for 0 and 30 min and extracted as described above. […] Further confirmation was obtained by exposing the compound to a collision energy causing the characteristic neutral loss of 3′-phosphonucleoside diphosphate (507 Da) producing the fragment ion 499.3 m/z. There was no evidence of the CoA derivative in the time 0 min sample.

Chain of human ACLY (P53396 whole entry): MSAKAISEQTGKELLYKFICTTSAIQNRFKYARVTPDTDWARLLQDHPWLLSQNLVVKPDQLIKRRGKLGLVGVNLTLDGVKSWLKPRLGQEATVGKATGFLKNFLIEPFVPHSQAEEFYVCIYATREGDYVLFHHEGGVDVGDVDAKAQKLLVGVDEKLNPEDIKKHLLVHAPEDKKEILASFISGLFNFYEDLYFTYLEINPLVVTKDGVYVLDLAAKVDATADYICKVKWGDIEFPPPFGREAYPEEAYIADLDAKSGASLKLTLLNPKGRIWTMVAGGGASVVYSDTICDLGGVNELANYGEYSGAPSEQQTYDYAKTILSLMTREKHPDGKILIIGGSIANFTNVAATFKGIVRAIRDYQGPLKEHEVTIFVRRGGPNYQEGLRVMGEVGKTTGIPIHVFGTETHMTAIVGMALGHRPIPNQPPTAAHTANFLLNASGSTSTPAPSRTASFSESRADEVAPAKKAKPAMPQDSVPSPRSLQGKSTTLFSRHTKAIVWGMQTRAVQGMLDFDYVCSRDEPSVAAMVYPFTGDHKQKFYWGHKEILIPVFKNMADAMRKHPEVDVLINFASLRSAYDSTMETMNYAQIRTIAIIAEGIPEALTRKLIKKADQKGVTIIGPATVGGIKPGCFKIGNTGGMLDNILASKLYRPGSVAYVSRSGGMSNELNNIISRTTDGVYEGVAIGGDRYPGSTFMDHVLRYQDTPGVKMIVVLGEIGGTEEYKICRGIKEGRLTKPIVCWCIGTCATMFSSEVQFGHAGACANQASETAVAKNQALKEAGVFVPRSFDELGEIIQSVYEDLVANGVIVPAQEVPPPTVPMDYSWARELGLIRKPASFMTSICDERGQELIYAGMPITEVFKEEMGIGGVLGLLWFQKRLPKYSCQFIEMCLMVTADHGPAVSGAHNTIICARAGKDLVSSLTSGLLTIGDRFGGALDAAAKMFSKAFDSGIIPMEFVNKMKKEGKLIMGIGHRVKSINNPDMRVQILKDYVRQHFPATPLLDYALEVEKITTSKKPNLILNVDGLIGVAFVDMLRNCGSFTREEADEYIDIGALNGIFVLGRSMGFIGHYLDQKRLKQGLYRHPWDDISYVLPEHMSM

Structure (SMILES): CC(C)(CCCCCCCCCCCC(C)(C)C(=O)O)C(=O)O [F]
- % change from control at 100 μM ± SEM(n) [1]: −91 ± 3.6 (n = 4) %

Structure (SMILES): CC(C)(CCCCCC(=O)CCCCCC(C)(C)C(=O)O)C(=O)O [C]
- inhibition at 100 µM [1]: 76 ± 41%

Structure (SMILES): CC(C)(CO)CCCCCC(=O)CCCCCC(C)(C)CO [D]
- % change from control at 100 μM ± SEM(n) [1]: −90 ± 1.5 (n = 4) %

Structure (SMILES): CN(C)CC[C@H](CSc1ccccc1)Nc1ccc(S(=O)(=O)NC(=O)c2ccc(N3CCN(Cc4ccccc4-c4ccc(Cl)cc4)CC3)cc2)cc1[N+](=O)[O-] [ABT-737, reference compound]
- CD41a+ mean fluorescence intensity (MFI), normalized [2]: 46±34%
- Normalized cell size (CD41a+) [2]: 81±6%
- CD41a CD42b+ counts (mature megakaryocytes), normalized to reference media control ([2]; average±SD): 2±1%
- CD41a+ cells (megakaryocytes), normalized to reference media control ([2]; average±SD): 9±5%
- Platelet counts, normalized to reference media control ([2]; average±SD): 3±3%

Structure (SMILES): CC(C)(CCCCCCC(=O)CCCCCCC(C)(C)C(=O)O)C(=O)O [E]
- % change from control at 100 μM ± SEM(n) [1]: −62 ± 4.5 (n = 4) %

Structure (SMILES): CC(C)(CCCCCC(O)CCCCCC(C)(C)C(=O)O)C(=O)O [BA, Bempedoic acid]
- % change from control at 100 μM ± SEM(n) [1]: −79 ± 1.5 (n = 4) %

Structure (SMILES): CC(C)(CO)CCCCC(=O)CCCCC(C)(C)C(=O)O [B]
- IC50 [1]: 25.6 µM
- inhibition at 100 µM [1]: 69 ± 2.3%

Structure (SMILES): CC(C)(CCCc1ccc(CCCC(C)(C)C(=O)O)cc1)C(=O)O [III-1]
- % change from control at 100 μM ± SEM(n) [1]: −70 ± 2.2 (n = 4) %

Structure (SMILES): COc1ccc(-c2ccccc2)cc1NS(=O)(=O)c1cc(Cl)cc(Cl)c1O [BMS-303141, reference compound]
- IC50 (human ACLY): 4.45e-07 M

Structure (SMILES): CC(C)(CCCc1ccccc1CCCC(C)(C)C(=O)SCCNC(=O)CCNC(=O)[C@H](O)C(C)(C)COP(=O)(O)OP(=O)(O)OC[C@H]1O[C@@H](n2cnc3c(N)ncnc32)[C@H](O)[C@@H]1OP(=O)(O)O)C(=O)O [I-61—CoA]
- Formation of the CoA derivative (LCMS detection, fragmentation confirmation) [3]: could not be confirmed

Structure (SMILES): CC(C)(CO)CCCCC(=O)CCCCC(C)(C)CO [A]
- % change from control at 100 μM ± SEM(n) [1]: −41 ± 4.8 (n = 2) %
